Assay results from ChEMBL document CHEMBL1129765, “Azonia derivatives of the -carboline system. A new class of DNA intercalators” (Bioorg Med Chem Lett, 1996).

System: HT-29
Test: Compound was tested in vitro to inhibit 50% colon carcinoma HT-29 cell growth after 72 h
Format: functional, cell-based
Conditions: Homo sapiens, HT-29, 72 h

EC50: 2.5 µM
Compound: COc1cccc2c1C(=O)c1c(O)c3c(c(O)c1C2=O)C[C@@](O)(C(=O)CO)C[C@@H]3O[C@H]1C[C@H](N)[C@H](O)[C@H](C)O1 [DOXORUBICIN]
